Experiments:
[1] = test system: primary hippocampal neurons; assay: Antagonist pre-treatment studies of neuronal structural change, Sholl analysis; type: cell-based, rat; settings: for AUC of the Sholl plot / normalised AUC of the Sholl plot: vehicle pre-treated; for neuronal structural complexity (normalised AUC): meta-analysis, combined vehicle pre-treated groups
Experimental: Primary hippocampal cultures were grown on 18 mm glass coverslips at a density of 1×10^6 cells as described. On 3 DIV all cells underwent a full medium change. […] On 4 DIV, all cells underwent a second full medium change. Cells in the combination group were treated with 2 μM 5-MeO-DMT for a further 24 hours with all other groups beginning a 24-hour treatment. After treatment was completed the cells were fixed and processed as described below.
Based on the findings with other psychedelic drugs that share structural and behavioral similarities to 5-MeO-DMT we selected ANA-12 (Sigma), an antagonist of TrkB, the BDNF receptor, and rapamycin (ThermoFischer) an antagonist of the mammalian target of rapamycin (mTOR). Due to the affinity and known behavioral change induced by 5-MeO-DMT at the 5-HT1AR and 5-HT2AR we assessed their contribution to structural changes mediated by 5-MeO-DMT. The receptors were antagonized with WAY-100635 maleate (Tocris) or Ketanserin (Axxora), respectively. For all antagonist studies the antagonist under investigation was added 15 mins prior to drug treatment. […] ANA-12, Ketanserin and rapamycin were dissolved in dimethyl sulfoxide (DMSO) with a final concentration of 0.01-0.04% for treatment. WAY100635 was dissolved in sterile dH2O.
After termination of drug treatment coverslips were processed and imaged as outlined for immunocytochemistry. In all instances NeuN antibody staining was used to visualize projections from the cell body. Images were analyzed using the Simple Neurite Tracer and Sholl analysis plug-ins for ImageJ Fiji. For the Sholl analysis circle radii of 2 μm increments were used. All images were taken and analyzed by an experimenter blinded to treatment conditions.
Statistical Analysis—Data are represented as mean±SEM. Statistical analyses were performed using GraphPad Prism (version 5). For analyses involving comparison of three or more groups, a one-way ANOVA with Bonferroni's post-hoc test was utilized where appropriate. No statistics were calculated for the individual points of the Sholl plots, instead, statistical analyses were performed on the aggregate data, the area under the curve (AUC) of the Sholl plot. Secondary measurements were the Nmax, the maximum number of intersections measured by the Sholl analysis, which indicated the number of projections emanating from a neuron and the average length of primary neurites originating from the cell soma.

[2] = target: 5-HT1AR; settings: canonical signaling activity measured; read-out: affinity (Ki) for the 5-HT1AR subtype; cited from earlier work
[3] = humans, following insufflation; cited from earlier work
[4] = test system: MAO-A and cytochrome P450 2D6 (CYP2D6); settings: cited from earlier work
[5] = test system: G9a; settings: repeated cocaine; cited from earlier work
[6] = ANA-12 study, 5-MeO-DMT or cocaine alone
[7] = WAY100635 study, 5-MeO-DMT (20 μM) or cocaine (25 μM) alone
[8] = rapamycin study, 5-MeO-DMT or cocaine alone

Row | Structure (SMILES) | AUC of the Sholl plot [1, 6] | AUC of the Sholl plot ([1]; ANA-12 study, cocaine and 5-MeO-DMT combined) | average neurite length ([1]; ANA-12 study, 5-MeO-DMT alone) | average neurite length ([1]; ANA-12 study, 5-MeO-DMT in combination with cocaine) | normalised AUC of the Sholl plot [1, 7] | normalised AUC of the Sholl plot ([1]; WAY100635 study, cocaine followed by 5-MeO-DMT) | average neurite length ([1]; WAY100635 study, 5-Meo+vehicle) | normalised AUC of the Sholl plot ([1]; ketanserin study, cocaine followed by 5-MeO-DMT) | neuronal structural complexity (normalised AUC) ([1]; agent alone) | neuronal structural complexity (normalised AUC) ([1]; cocaine+5-MeO-DMT combination) | normalised AUC of the Sholl plot [1, 8] | normalised AUC of the Sholl plot ([1]; rapamycin study, cocaine followed by 5-MeO-DMT) | Ki [2] [nM] | end of effects [3] [min] | peak of effects [3] [min] | start of effects [3] [min] | primary metabolic pathways [4] | reduction in G9a expression [5] [%]
1 | COc1ccc2[nH]cc(CCN(C)C)c2c1 [5-MeO-DMT, 5-methoxy-N,N-dimethyltryptamine] | increased the AUC relative to control | increased the AUC relative to control | significantly increased | significantly increased | increased the normalised AUC | no change between the combination group and control | significantly increased | reduced AUC relative to control | significantly increased neuronal structural complexity | significantly increased neuronal structural complexity | increased the normalised AUC | no change between the combination group and control | < 10 | 60 to 70 | 35 to 40 | 3 to 4 | deamination by MAO-A and O-demethylation by cytochrome P450 2D6 (CYP2D6) | –
2 | COC(=O)[C@H]1[C@@H](OC(=O)c2ccccc2)C[C@@H]2CC[C@H]1N2C.Cl [cocaine, cocaine hydrochloride, reference compound] | increased the AUC relative to control | – | – | – | increased the normalised AUC | – | – | – | significantly increased neuronal structural complexity | – | increased the normalised AUC | – | – | – | – | – | – | 19

— patent US20240299353A1, “COMPOSITIONS AND METHODS FOR TREATING […] 5-MEO-DMT” (Alvarius Pharmaceuticals Ltd., priority 2021, published 2024)
